Source: ChEMBL document CHEMBL4138175, “Newly designed organotin(IV) carboxylates with peptide linkage: Synthesis, structural elucidation, physicochemical characterizations and pharmacological investigations” (Eur J Med Chem, 2018)
Activity calls are given as the source filed them. No cut-off for these calls is given here.

What follows are substances tested on NCI-H157 (assay: Cytotoxicity against human NCI-H157 cells at 100 uM after 48 hrs by sulforhodamine B assay).
Format: functional

Substance | Activity [%]
Tributylstannyl 2-(4-methoxy-2-nitrophenylcarbamoyl)benzoate | 38.2
Dioctylstannanediyl bis 2-(4-methoxy-2-nitrophenylcarbamoyl)benzoate | 63.7

The substances below were run on NCI-H157 (assay: Cytotoxicity against human NCI-H157 cells at 10 uM after 48 hrs by sulforhodamine B assay).
Format: functional

Substance | Activity [%]
Tributylstannyl 2-(4-methoxy-2-nitrophenylcarbamoyl)benzoate | 37.7
Dioctylstannanediyl bis 2-(4-methoxy-2-nitrophenylcarbamoyl)benzoate | 59.1

These substances were tested on NCI-H157 (assay: Cytotoxicity against human NCI-H157 cells at 1 uM after 48 hrs by sulforhodamine B assay).
Format: functional

Substance | Activity [%]
Tributylstannyl 2-(4-methoxy-2-nitrophenylcarbamoyl)benzoate | 35.6
Dioctylstannanediyl bis 2-(4-methoxy-2-nitrophenylcarbamoyl)benzoate | 54.3

The substances below were run on NCI-H157 (assay: Cytotoxicity against human NCI-H157 cells at 0.1 uM after 48 hrs by sulforhodamine B assay).
Format: functional

Substance | Activity [%]
Tributylstannyl 2-(4-methoxy-2-nitrophenylcarbamoyl)benzoate | 32.1
Dioctylstannanediyl bis 2-(4-methoxy-2-nitrophenylcarbamoyl)benzoate | 48.9

These substances were tested on Leishmania major (assay: Antileishmanial activity against Leishmania major promastigotes at 100 uM after 72 hrs by MTT assay relative to control).
Format: functional

Substance | Activity [%]
Tributylstannyl 2-(4-methoxy-2-nitrophenylcarbamoyl)benzoate | 66.9
Dioctylstannanediyl bis 2-(4-methoxy-2-nitrophenylcarbamoyl)benzoate | 58.8

What follows are substances tested on Leishmania major (assay: Antileishmanial activity against Leishmania major promastigotes at 10 uM after 72 hrs by MTT assay relative to control).
Format: functional

Substance | Activity [%]
Tributylstannyl 2-(4-methoxy-2-nitrophenylcarbamoyl)benzoate | 63.3
Dioctylstannanediyl bis 2-(4-methoxy-2-nitrophenylcarbamoyl)benzoate | 55.2

These substances were tested on Leishmania major (assay: Antileishmanial activity against Leishmania major promastigotes at 1 uM after 72 hrs by MTT assay relative to control).
Format: functional

Substance | Activity [%]
Tributylstannyl 2-(4-methoxy-2-nitrophenylcarbamoyl)benzoate | 57.4
Dioctylstannanediyl bis 2-(4-methoxy-2-nitrophenylcarbamoyl)benzoate | 47.1

What follows are substances tested on Leishmania major (assay: Antileishmanial activity against Leishmania major promastigotes at 0.1 uM after 72 hrs by MTT assay relative to control).
Format: functional

Substance | Activity [%]
Tributylstannyl 2-(4-methoxy-2-nitrophenylcarbamoyl)benzoate | 52.6
Dioctylstannanediyl bis 2-(4-methoxy-2-nitrophenylcarbamoyl)benzoate | 42.9

The substances below were run on Klebsiella pneumoniae (assay: Antibacterial activity against Klebsiella pneumoniae assessed as zone of inhibition after 24 to 48 hrs by well diffusion method).
Format: functional

Substance | inhibition zone (IZ) [mm]
Tributylstannyl 2-(4-methoxy-2-nitrophenylcarbamoyl)benzoate | 15
Dioctylstannanediyl bis 2-(4-methoxy-2-nitrophenylcarbamoyl)benzoate | 22.3

What follows are substances tested on Streptococcus pyogenes (assay: Antibacterial activity against Streptococcus pyogenes assessed as zone of inhibition after 24 to 48 hrs by well diffusion method).
Format: functional

Substance | inhibition zone (IZ)
Tributylstannyl 2-(4-methoxy-2-nitrophenylcarbamoyl)benzoate | inactive
Dioctylstannanediyl bis 2-(4-methoxy-2-nitrophenylcarbamoyl)benzoate | 12 mm

What follows are substances tested on Staphylococcus epidermidis (assay: Antibacterial activity against Staphylococcus epidermidis assessed as zone of inhibition after 24 to 48 hrs by well diffusion method).
Format: functional

Substance | inhibition zone (IZ) [mm]
Tributylstannyl 2-(4-methoxy-2-nitrophenylcarbamoyl)benzoate | 16
Dioctylstannanediyl bis 2-(4-methoxy-2-nitrophenylcarbamoyl)benzoate | 11.3

Each substance was assayed on Staphylococcus aureus (assay: Antibacterial activity against Staphylococcus aureus assessed as zone of inhibition after 24 to 48 hrs by well diffusion method).
Format: functional

Substance | inhibition zone (IZ)
Tributylstannyl 2-(4-methoxy-2-nitrophenylcarbamoyl)benzoate | inactive
Dioctylstannanediyl bis 2-(4-methoxy-2-nitrophenylcarbamoyl)benzoate | inactive

What follows are substances tested on Serratia marcescens (assay: Antibacterial activity against Serratia marcescens assessed as zone of inhibition after 24 to 48 hrs by well diffusion method).
Format: functional

Substance | inhibition zone (IZ) [mm]
Tributylstannyl 2-(4-methoxy-2-nitrophenylcarbamoyl)benzoate | 12.7
Dioctylstannanediyl bis 2-(4-methoxy-2-nitrophenylcarbamoyl)benzoate | 5

These substances were tested on Pseudomonas aeruginosa (assay: Antibacterial activity against Pseudomonas aeruginosa assessed as zone of inhibition after 24 to 48 hrs by well diffusion method).
Format: functional

Substance | inhibition zone (IZ)
Tributylstannyl 2-(4-methoxy-2-nitrophenylcarbamoyl)benzoate | 15.7 mm
Dioctylstannanediyl bis 2-(4-methoxy-2-nitrophenylcarbamoyl)benzoate | inactive

The substances below were run on Escherichia coli (assay: Antibacterial activity against Escherichia coli assessed as zone of inhibition after 24 to 48 hrs by well diffusion method).
Format: functional

Substance | inhibition zone (IZ)
Tributylstannyl 2-(4-methoxy-2-nitrophenylcarbamoyl)benzoate | 1.56 mm
Dioctylstannanediyl bis 2-(4-methoxy-2-nitrophenylcarbamoyl)benzoate | inactive

These substances were tested on Klebsiella pneumoniae (assay: Antibacterial activity against Klebsiella pneumoniae assessed as zone of inhibition by measuring activity index after 24 to 48 hrs by well diffusion method relative to tetracycline).
Format: functional, organism-based

Substance | Activity index
Tributylstannyl 2-(4-methoxy-2-nitrophenylcarbamoyl)benzoate | 1.07
Dioctylstannanediyl bis 2-(4-methoxy-2-nitrophenylcarbamoyl)benzoate | 1.59

Each substance was assayed on Klebsiella pneumoniae (assay: Antibacterial activity against Klebsiella pneumoniae assessed as zone of inhibition by measuring activity index after 24 to 48 hrs by well diffusion method relative to ampicillin).
Format: functional, organism-based

Substance | Activity index
Tributylstannyl 2-(4-methoxy-2-nitrophenylcarbamoyl)benzoate | 2.5
Dioctylstannanediyl bis 2-(4-methoxy-2-nitrophenylcarbamoyl)benzoate | 3.72

These substances were tested on Klebsiella pneumoniae (assay: Antibacterial activity against Klebsiella pneumoniae assessed as zone of inhibition by measuring activity index after 24 to 48 hrs by well diffusion method relative to amoxicillin).
Format: functional, organism-based

Substance | Activity index
Tributylstannyl 2-(4-methoxy-2-nitrophenylcarbamoyl)benzoate | 2.5
Dioctylstannanediyl bis 2-(4-methoxy-2-nitrophenylcarbamoyl)benzoate | 3.72

What follows are substances tested on Streptococcus pyogenes (assay: Antibacterial activity against Streptococcus pyogenes assessed as zone of inhibition by measuring activity index after 24 to 48 hrs by well diffusion method relative to tetracycline).
Format: functional, organism-based

Substance | Activity_index
Tributylstannyl 2-(4-methoxy-2-nitrophenylcarbamoyl)benzoate | inactive

Each substance was assayed on Streptococcus pyogenes (assay: Antibacterial activity against Streptococcus pyogenes assessed as zone of inhibition by measuring activity index after 24 to 48 hrs by well diffusion method relative to penicillin G).
Format: functional, organism-based

Substance | Activity_index
Tributylstannyl 2-(4-methoxy-2-nitrophenylcarbamoyl)benzoate | inactive

These substances were tested on Streptococcus pyogenes (assay: Antibacterial activity against Streptococcus pyogenes assessed as zone of inhibition by measuring activity index after 24 to 48 hrs by well diffusion method relative to ampicillin).
Format: functional, organism-based

Substance | Activity_index
Tributylstannyl 2-(4-methoxy-2-nitrophenylcarbamoyl)benzoate | inactive

The substances below were run on Streptococcus pyogenes (assay: Antibacterial activity against Streptococcus pyogenes assessed as zone of inhibition by measuring activity index after 24 to 48 hrs by well diffusion method relative to amoxicillin).
Format: functional, organism-based

Substance | Activity_index
Tributylstannyl 2-(4-methoxy-2-nitrophenylcarbamoyl)benzoate | inactive

These substances were tested on Staphylococcus epidermidis (assay: Antibacterial activity against Staphylococcus epidermidis assessed as zone of inhibition by measuring activity index after 24 to 48 hrs by well diffusion method relative to tetracycline).
Format: functional, organism-based

Substance | Activity index
Tributylstannyl 2-(4-methoxy-2-nitrophenylcarbamoyl)benzoate | 1.6
Dioctylstannanediyl bis 2-(4-methoxy-2-nitrophenylcarbamoyl)benzoate | 1.13

These substances were tested on Staphylococcus epidermidis (assay: Antibacterial activity against Staphylococcus epidermidis assessed as zone of inhibition by measuring activity index after 24 to 48 hrs by well diffusion method relative to amoxicillin).
Format: functional, organism-based

Substance | Activity index
Tributylstannyl 2-(4-methoxy-2-nitrophenylcarbamoyl)benzoate | 8
Dioctylstannanediyl bis 2-(4-methoxy-2-nitrophenylcarbamoyl)benzoate | 5.67

What follows are substances tested on Staphylococcus aureus (assay: Antibacterial activity against Staphylococcus aureus assessed as zone of inhibition by measuring activity index after 24 to 48 hrs by well diffusion method relative to tetracycline).
Format: functional, organism-based

Substance | Activity_index
Tributylstannyl 2-(4-methoxy-2-nitrophenylcarbamoyl)benzoate | inactive
Dioctylstannanediyl bis 2-(4-methoxy-2-nitrophenylcarbamoyl)benzoate | inactive

What follows are substances tested on Staphylococcus aureus (assay: Antibacterial activity against Staphylococcus aureus assessed as zone of inhibition by measuring activity index after 24 to 48 hrs by well diffusion method relative to penicillin G).
Format: functional, organism-based

Substance | Activity_index
Tributylstannyl 2-(4-methoxy-2-nitrophenylcarbamoyl)benzoate | inactive
Dioctylstannanediyl bis 2-(4-methoxy-2-nitrophenylcarbamoyl)benzoate | inactive

What follows are substances tested on Staphylococcus aureus (assay: Antibacterial activity against Staphylococcus aureus assessed as zone of inhibition by measuring activity index after 24 to 48 hrs by well diffusion method relative to ampicillin).
Format: functional, organism-based

Substance | Activity_index
Tributylstannyl 2-(4-methoxy-2-nitrophenylcarbamoyl)benzoate | inactive
Dioctylstannanediyl bis 2-(4-methoxy-2-nitrophenylcarbamoyl)benzoate | inactive

Each substance was assayed on Staphylococcus aureus (assay: Antibacterial activity against Staphylococcus aureus assessed as zone of inhibition by measuring activity index after 24 to 48 hrs by well diffusion method relative to amoxicillin).
Format: functional, organism-based

Substance | Activity_index
Tributylstannyl 2-(4-methoxy-2-nitrophenylcarbamoyl)benzoate | inactive
Dioctylstannanediyl bis 2-(4-methoxy-2-nitrophenylcarbamoyl)benzoate | inactive

What follows are substances tested on Serratia marcescens (assay: Antibacterial activity against Serratia marcescens assessed as zone of inhibition by measuring activity index after 24 to 48 hrs by well diffusion method relative to penicillin G).
Format: functional

Substance | Activity index
Tributylstannyl 2-(4-methoxy-2-nitrophenylcarbamoyl)benzoate | 1.58
Dioctylstannanediyl bis 2-(4-methoxy-2-nitrophenylcarbamoyl)benzoate | 0.63

Each substance was assayed on Serratia marcescens (assay: Antibacterial activity against Serratia marcescens assessed as zone of inhibition by measuring activity index after 24 to 48 hrs by well diffusion method relative to ampicillin).
Format: functional

Substance | Activity index
Tributylstannyl 2-(4-methoxy-2-nitrophenylcarbamoyl)benzoate | 1.58
Dioctylstannanediyl bis 2-(4-methoxy-2-nitrophenylcarbamoyl)benzoate | 0.63

The substances below were run on Serratia marcescens (assay: Antibacterial activity against Serratia marcescens assessed as zone of inhibition by measuring activity index after 24 to 48 hrs by well diffusion method relative to amoxicillin).
Format: functional

Substance | Activity index
Tributylstannyl 2-(4-methoxy-2-nitrophenylcarbamoyl)benzoate | 2.11
Dioctylstannanediyl bis 2-(4-methoxy-2-nitrophenylcarbamoyl)benzoate | 0.84

The substances below were run on Pseudomonas aeruginosa (assay: Antibacterial activity against Pseudomonas aeruginosa assessed as zone of inhibition by measuring activity index after 24 to 48 hrs by well diffusion method relative to tetracycline).
Format: functional, organism-based

Substance | Activity index
Tributylstannyl 2-(4-methoxy-2-nitrophenylcarbamoyl)benzoate | 2.61

What follows are substances tested on Pseudomonas aeruginosa (assay: Antibacterial activity against Pseudomonas aeruginosa assessed as zone of inhibition by measuring activity index after 24 to 48 hrs by well diffusion method relative to penicillin G).
Format: functional, organism-based

Substance | Activity index
Tributylstannyl 2-(4-methoxy-2-nitrophenylcarbamoyl)benzoate | 2.61

These substances were tested on Pseudomonas aeruginosa (assay: Antibacterial activity against Pseudomonas aeruginosa assessed as zone of inhibition by measuring activity index after 24 to 48 hrs by well diffusion method relative to ampicillin).
Format: functional, organism-based

Substance | Activity_index
Dioctylstannanediyl bis 2-(4-methoxy-2-nitrophenylcarbamoyl)benzoate | inactive

The substances below were run on Pseudomonas aeruginosa (assay: Antibacterial activity against Pseudomonas aeruginosa assessed as zone of inhibition by measuring activity index after 24 to 48 hrs by well diffusion method relative to amoxicillin).
Format: functional, organism-based

Substance | Activity index
Tributylstannyl 2-(4-methoxy-2-nitrophenylcarbamoyl)benzoate | 2.61

These substances were tested on Escherichia coli (assay: Antibacterial activity against Escherichia coli assessed as zone of inhibition by measuring activity index after 24 to 48 hrs by well diffusion method relative to tetracycline).
Format: functional

Substance | Activity index
Tributylstannyl 2-(4-methoxy-2-nitrophenylcarbamoyl)benzoate | 0.78

What follows are substances tested on Escherichia coli (assay: Antibacterial activity against Escherichia coli assessed as zone of inhibition by measuring activity index after 24 to 48 hrs by well diffusion method relative to penicillin G).
Format: functional, organism-based

Substance | Activity_index
Dioctylstannanediyl bis 2-(4-methoxy-2-nitrophenylcarbamoyl)benzoate | inactive

The substances below were run on Escherichia coli (assay: Antibacterial activity against Escherichia coli assessed as zone of inhibition by measuring activity index after 24 to 48 hrs by well diffusion method relative to ampicillin).
Format: functional, organism-based

Substance | Activity_index
Dioctylstannanediyl bis 2-(4-methoxy-2-nitrophenylcarbamoyl)benzoate | inactive

The substances below were run on Escherichia coli (assay: Antibacterial activity against Escherichia coli assessed as zone of inhibition by measuring activity index after 24 to 48 hrs by well diffusion method relative to amoxicillin).
Format: functional, organism-based

Substance | Activity_index
Dioctylstannanediyl bis 2-(4-methoxy-2-nitrophenylcarbamoyl)benzoate | inactive

The substances below were run on DNA (assay: Binding affinity to single-stranded DNA (unknown origin) after 10 mins by UV-visible spectrometric method).
Format: nucleic-acid assay

Substance | K [×10³ /M]
Tributylstannyl 2-(4-methoxy-2-nitrophenylcarbamoyl)benzoate | 7.6

These substances were tested on NCI-H157 (assay: Cytotoxicity against human NCI-H157 cells after 48 hrs by sulforhodamine B assay).
Format: functional, cell-based

Substance | Activity
Tributylstannyl 2-(4-methoxy-2-nitrophenylcarbamoyl)benzoate | Dose-dependent effect
Dioctylstannanediyl bis 2-(4-methoxy-2-nitrophenylcarbamoyl)benzoate | Dose-dependent effect

These substances were tested on DNA (assay: Binding affinity to single-stranded DNA (unknown origin) assessed as red shift up to 72 uM after 10 mins by UV-visible spectrometric method).
Format: nucleic-acid assay

Substance | Activity [nm]
Tributylstannyl 2-(4-methoxy-2-nitrophenylcarbamoyl)benzoate | < 3
